PubChem BioAssay AID328 (DTP/NCI, 2004)
Where “and” joins values, the source holds several entries; their conditions need not be identical. Equal values may be shown once. Inconclusive results and toxic doses are left out.

Test system: BDF1 mice, P388 leukemia ip, median survival T/C
Experiment: NCI In Vivo Anticancer Drug Screen. Data for tumor model P388 Leukemia (intraperitoneal) in B6D2F1 (BDF1) mice
Conditions: endpoint: median survival time, higher = longer survival
In short: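 Compound-treated tumour-bearing mice were compared with vehicle-treated controls. Survival was recorded, and the value is the treated-group measurement divided by the control-group measurement (T/C).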

[1] = dose: 50.0 mg/kg/injection, schedule: Q01DX009 (ip), vehicle: saline with Tween-80
[2] = dose: 12.5 mg/kg/injection, schedule: Q01DX009 (ip), vehicle: saline
[3] = dose: 100.0 mg/kg/injection, schedule: Q01DX009 (ip), vehicle: saline with Tween-80
[4] = dose: 100.0 mg/kg/injection, schedule: Q04DX003 (ip), vehicle: saline with Tween-80
[5] = dose: 200.0 mg/kg/injection, schedule: Q04DX003 (ip), vehicle: saline with Tween-80
[6] = dose: 400.0 mg/kg/injection, schedule: Q04DX003 (ip), vehicle: saline with Tween-80

CC1(C)N=C(N)N=C(N)N1c1ccc(Cl)c(Cl)c1
T/C (dose: 7.2 mg/kg/injection, schedule: Q01DX009 (ip), vehicle: Klucel (hydroxypropylcellulose) (HPC)): 122 % of control | T/C (dose: 16.0 mg/kg/injection, schedule: Q01DX009 (ip), vehicle: Klucel (hydroxypropylcellulose) (HPC)): 181 % of control | T/C (dose: 20.0 mg/kg/injection, schedule: Q04DX003 (ip), vehicle: Klucel (hydroxypropylcellulose) (HPC)): 120 % of control | T/C (dose: 22.5 mg/kg/injection, schedule: Q01DX009 (ip), vehicle: Klucel (hydroxypropylcellulose) (HPC)): 172 % of control | T/C (dose: 26.0 mg/kg/injection, schedule: Q04DX003 (ip), vehicle: Klucel (hydroxypropylcellulose) (HPC)): 154 % of control | T/C (dose: 30.0 mg/kg/injection, schedule: Q01DX009 (ip), vehicle: Klucel (hydroxypropylcellulose) (HPC)): 95 % of control | T/C (dose: 40.0 mg/kg/injection, schedule: Q04DX003 (ip), vehicle: Klucel (hydroxypropylcellulose) (HPC)): 231 % of control and 158 % of control

c1ccc2c(c1)nnn1c3ncccc3nc21
T/C [1]: 115 % of control

[N-]=[N+]=NCc1cnccn1
T/C [2]: 100 % of control | T/C (dose: 25.0 mg/kg/injection, schedule: Q01DX009 (ip), vehicle: saline): 113 % of control

CC1CC[N-]CC1.CC1CC[N-]CC1.CC1CC[N-]CC1.CC1CC[N-]CC1.[Pt+4]
T/C (dose: 0.09 mg/kg/injection, schedule: Q01DX009 (ip), vehicle: saline): 88 % of control | T/C (dose: 0.19 mg/kg/injection, schedule: Q01DX009 (ip), vehicle: saline): 93 % of control | T/C (dose: 0.23 mg/kg/injection, schedule: Q01DX009 (ip), vehicle: saline): 88 % of control | T/C (dose: 0.25 mg/kg/injection, schedule: Q01DX009 (ip), vehicle: saline): 102 % of control | T/C (dose: 0.39 mg/kg/injection, schedule: Q01DX009 (ip), vehicle: saline): 92 % of control | T/C (dose: 0.5 mg/kg/injection, schedule: Q01DX009 (ip), vehicle: saline): 102 % of control | T/C (dose: 0.65 mg/kg/injection, schedule: Q01DX009 (ip), vehicle: saline): 92 % of control | T/C (dose: 0.78 mg/kg/injection, schedule: Q01DX009 (ip), vehicle: saline): 88 % of control and 105 % of control | T/C (dose: 1.0 mg/kg/injection, schedule: Q01DX009 (ip), vehicle: saline): 112 % of control | T/C (dose: 1.56 mg/kg/injection, schedule: Q01DX009 (ip), vehicle: saline): 90 % of control | T/C (dose: 1.56 mg/kg/injection, schedule: Q04DX003 (ip), vehicle: saline): 109 % of control | T/C (dose: 2.0 mg/kg/injection, schedule: Q01DX009 (ip), vehicle: saline): 103 % of control | T/C (dose: 3.12 mg/kg/injection, schedule: Q04DX003 (ip), vehicle: saline): 95 % of control

CCC1=C(C[C@H]2NCCc3cc(OC)c(OC)cc32)C[C@H]2c3cc(OC)c(OC)cc3CCN2C1
T/C (dose: 4.0 mg/kg/injection, schedule: Q04DX003 (ip), vehicle: saline): 110 % of control | T/C (dose: 6.7 mg/kg/injection, schedule: Q04DX003 (ip), vehicle: saline with Tween-80): 113 % of control | T/C (dose: 15.0 mg/kg/injection, schedule: Q04DX003 (ip), vehicle: saline with Tween-80): 159 % of control | T/C (dose: 16.0 mg/kg/injection, schedule: Q04DX003 (ip), vehicle: saline): 158 % of control | T/C (dose: 22.0 mg/kg/injection, schedule: Q04DX003 (ip), vehicle: Klucel (hydroxypropylcellulose) (HPC)): 165 % of control | T/C (dose: 32.0 mg/kg/injection, schedule: Q04DX003 (ip), vehicle: saline): 174 % of control | T/C (dose: 33.0 mg/kg/injection, schedule: Q04DX003 (ip), vehicle: Klucel (hydroxypropylcellulose) (HPC)): 165 % of control | T/C (dose: 33.0 mg/kg/injection, schedule: Q04DX003 (ip), vehicle: saline with Tween-80): 177 % of control | T/C (dose: 33.0 mg/kg/injection, schedule: Q04DX003 (ip), vehicle: saline): 154 % of control | T/C (dose: 50.0 mg/kg/injection, schedule: Q04DX003 (ip), vehicle: saline with Tween-80): 195 % of control | T/C (dose: 75.0 mg/kg/injection, schedule: Q04DX003 (ip), vehicle: saline): 90 % of control

COC1CC(N=[N+]=[N-])C(OC(=O)c2ccccc2)C(C)O1 (stereo not given)
T/C [3]: 94 % of control | T/C [4]: 101 % of control | T/C [5]: 106 % of control | T/C [6]: 106 % of control

O=C1NCCN1c1cccc([N+](=O)[O-])c1
T/C (dose: 25.0 mg/kg/injection, schedule: Q04DX003 (ip), vehicle: Klucel (hydroxypropylcellulose) (HPC)): 100 % of control | T/C (dose: 50.0 mg/kg/injection, schedule: Q04DX003 (ip), vehicle: Klucel (hydroxypropylcellulose) (HPC)): 100 % of control

O=C/C(Cl)=C(/Cl)C(=O)O
T/C (dose: 6.25 mg/kg/injection, schedule: Q04DX002 (ip), vehicle: saline with Tween-80): 110 % of control | T/C (dose: 12.5 mg/kg/injection, schedule: Q04DX002 (ip), vehicle: saline with Tween-80): 108 % of control | T/C (dose: 25.0 mg/kg/injection, schedule: Q04DX002 (ip), vehicle: saline with Tween-80): 103 % of control

CC1OC(Oc2c(-c3cc(O)c(O)c(O)c3)oc3cc(O)cc(O)c3c2=O)C(O)C(O)C1O (stereo not given)
T/C [1]: 119 % of control | T/C [3]: 100 % of control

COc1cc2c(cc1OC)C(C#N)N(C(=O)c1ccccc1)C=C2 (stereo not given)
T/C (dose: 25.0 mg/kg/injection, schedule: Q04DX003 (ip), vehicle: water): 114 % of control | T/C (dose: 50.0 mg/kg/injection, schedule: Q04DX003 (ip), vehicle: water): 99 % of control | T/C (dose: 100.0 mg/kg/injection, schedule: Q04DX003 (ip), vehicle: water): 94 % of control | T/C (dose: 200.0 mg/kg/injection, schedule: Q04DX003 (ip), vehicle: water): 94 % of control | T/C (dose: 400.0 mg/kg/injection, schedule: Q04DX003 (ip), vehicle: water): 112 % of control

Cc1ccccc1C[P+](c1ccccc1)(c1ccccc1)c1ccccc1
T/C (dose: 0.39 mg/kg/injection, schedule: Q01DX009 (ip), vehicle: Klucel (hydroxypropylcellulose) (HPC)): 100 % of control | T/C (dose: 0.39 mg/kg/injection, schedule: Q04DX003 (ip), vehicle: Klucel (hydroxypropylcellulose) (HPC)): 100 % of control | T/C (dose: 0.78 mg/kg/injection, schedule: Q01DX009 (ip), vehicle: Klucel (hydroxypropylcellulose) (HPC)): 108 % of control | T/C (dose: 0.78 mg/kg/injection, schedule: Q04DX003 (ip), vehicle: Klucel (hydroxypropylcellulose) (HPC)): 122 % of control | T/C (dose: 1.56 mg/kg/injection, schedule: Q01DX009 (ip), vehicle: Klucel (hydroxypropylcellulose) (HPC)): 112 % of control | T/C (dose: 1.56 mg/kg/injection, schedule: Q04DX003 (ip), vehicle: Klucel (hydroxypropylcellulose) (HPC)): 113 % of control | T/C (dose: 3.12 mg/kg/injection, schedule: Q01DX009 (ip), vehicle: saline): 150 % of control | T/C (dose: 3.5 mg/kg/injection, schedule: Q04DX003 (ip), vehicle: Klucel (hydroxypropylcellulose) (HPC)): 104 % of control | T/C (dose: 13.2 mg/kg/injection, schedule: Q04DX003 (ip), vehicle: saline with Tween-80): 113 % of control | T/C (dose: 30.0 mg/kg/injection, schedule: Q04DX003 (ip), vehicle: saline with Tween-80): 104 % of control

CCCCCCCCC(=O)Nc1ncnc2n[nH]nc12
T/C (dose: 6.25 mg/kg/injection, schedule: Q01DX009 (ip), vehicle: saline with Tween-80): 87 % of control | T/C (dose: 12.5 mg/kg/injection, schedule: Q01DX009 (ip), vehicle: saline with Tween-80): 90 % of control | T/C (dose: 25.0 mg/kg/injection, schedule: Q01DX009 (ip), vehicle: saline with Tween-80): 102 % of control | T/C [1]: 109 % of control

COC(=O)c1ccc2oc(=O)cc(C)c2c1O
T/C [4]: 104 % of control | T/C [5]: 100 % of control | T/C [6]: 95 % of control

c1ccc([C@H]2CN3CCSC3=N2)cc1
T/C (dose: 0.15 mg/kg/injection, schedule: Q01DX009 (ip), vehicle: saline): 100 % of control | T/C (dose: 0.31 mg/kg/injection, schedule: Q01DX009 (ip), vehicle: saline): 100 % of control | T/C (dose: 0.63 mg/kg/injection, schedule: Q01DX009 (ip), vehicle: saline): 100 % of control and 122 % of control | T/C (dose: 1.25 mg/kg/injection, schedule: Q01DX009 (ip), vehicle: saline): 97 % of control and 104 % of control | T/C (dose: 2.5 mg/kg/injection, schedule: Q01DX009 (ip), vehicle: saline): 99 % of control and 104 % of control | T/C (dose: 5.0 mg/kg/injection, schedule: Q01DX009 (ip), vehicle: saline): 100 % of control | T/C (dose: 10.0 mg/kg/injection, schedule: Q01DX009 (ip), vehicle: saline): 94 % of control and 100 % of control | T/C (dose: 20.0 mg/kg/injection, schedule: Q01DX009 (ip), vehicle: saline): 94 % of control and 100 % of control

CN[C@@H]1[C@H](O)[C@H](NC)[C@H]2O[C@@]3(O)C(=O)C[C@@H](C)O[C@H]3O[C@@H]2[C@H]1O
T/C (dose: 6.25 mg/kg/injection, schedule: Q01DX009 (ip), vehicle: saline): 95 % of control | T/C [2]: 90 % of control | T/C (dose: 100.0 mg/kg/injection, schedule: Q01DX009 (ip), vehicle: saline): 99 % of control | T/C (dose: 200.0 mg/kg/injection, schedule: Q01DX009 (ip), vehicle: saline): 117 % of control | T/C (dose: 400.0 mg/kg/injection, schedule: Q01DX009 (ip), vehicle: saline): 115 % of control
